According to US20200283807A1, “METHOD AND CELL LINE FOR PRODUCTION OF PHYTOCANNABINOIDS AND PHYTOC[…] IN YEAST” (Hyasynth Biologicals Inc., priority 2017, published 2020):

What was measured:
S. cerevisiae [1] = assay: Effect of hexanoic acid on growth of S. cerevisiae strain HB13 (A600 of culture); assay type: cell-based, Saccharomyces cerevisiae; details: for growth (A600): HB13-HA, 0.5 mM hexanoic acid
Method: (§1) Yeast cultures were grown in overnight cultures with selective media to provide starter cultures. The resulting starter cultures were then used to inoculate triplicate 50 ml cultures to an optical density at having an absorption at 600 nm (“A600”) of 0.1.
HB13 was cultured in YNB+2% glucose+1.6 g/L 4DO*+0.5 mM hexanoic acid. Hexanoic acid was added at 36 hours of culture. The hexanoic acid was added to separate culture samples at concentrations of 0, 0.5, 1.0 and 3.0 mM. Hexanoic acid is toxic to S. cerevisiae. […] The magnitude of the decrease in S. cerevisiae growth corresponds to the concentration of hexanoic acid in the growth media. The A600 value of culture suspensions quantifies the growth rate, which is shown at hexanoic acid concentrations of 0, 0.5, 1.0 and 3.0 mM in FIG. 12.
(§2) In the presence of 0.5 mM hexanoic acid, HB13 and HB37 were grown for 96 hours with samples taken at the 24h, 36h, 48h, 60, 72h, 84h and 96h points. In the absence of hexanoic acid, HB13 and HB84 were grown and a single time point was taken at 72 hours. HB13 was used as a control in both experiments. The growth media are described above in relation to Tables 8 and 9.

S. cerevisiae [2] = assay: Growth of S. cerevisiae strain HB37 in the presence of hexanoic acid (A600 of culture); assay type: cell-based, Saccharomyces cerevisiae; details: HB37-HA, 0.5 mM hexanoic acid
Method: as §1, §2
FIGS. 13 to 15 each show the A600 values of the HB37 culture listed in Table 10 (dashed lines with triangle data points).

In the case of `CCCCCC(=O)O` [hexanoic acid], the “growth (A600)” value (S. cerevisiae [1]; 24 h) is reported as 5.33, the “growth (A600)” value (S. cerevisiae [1]; 36 h) is reported as 5.80 and the “growth (A600)” value (S. cerevisiae [1]; 48 h) is reported as 4.67. For the same compound, the “growth (A600)” value (S. cerevisiae [1]; 60 h) was 6.07, the “growth (A600)” value (S. cerevisiae [1]; 72 h) was 8.96 and the “growth (A600)” value (S. cerevisiae [1]; 84 h) was 7.23. For the same compound, the “growth (A600)” value (S. cerevisiae [1]; 96 h) was 8.28, the “effect of hexanoic acid supplementation on growth of S. cerevisiae (A600)” value (S. cerevisiae [1]; HB13, hexanoic acid added at 36 hours at 0, 0.5, 1.0 and 3.0 mM, FIG. 12) was “Decreased growth” and the “growth (A600)” value (S. cerevisiae [2]; 24 h) was 3.33. The “growth (A600)” value (S. cerevisiae [2]; 36 h) was 3.43, the “growth (A600)” value (S. cerevisiae [2]; 48 h) was 3.33 and the “growth (A600)” value (S. cerevisiae [2]; 60 h) was 3.53. The “growth (A600)” value (S. cerevisiae [2]; 72 h) was 4.48, the “growth (A600)” value (S. cerevisiae [2]; 84 h) was 4.13 and the “growth (A600)” value (S. cerevisiae [2]; 96 h) was 4.33.
